Test results as given in patent US9828350B2, “5,6-dihydro-2H-[1,4]oxazin-3-yl-amine derivatives useful as inhibitors of beta-secretase (BACE)” (Janssen Pharmaceutica NV, priority 2010, dated 2017).

Legend:
Abeta 1-42 = assay: Cellular αLisa assay in SKNBE2 cells, Abeta 1-42; format: cell-based, human; settings: incubated for 18 hours; for IC50: Homo sapiens, SKNBE2, 18 h, read-out: Cellular αLisa assay in SKNBE2 cells Abeta 42 pIC50 (converted)
Experimental: (§1) Cellular αLisa Assay in SKNBE2 Cells
(§2) In two αLisa assays the levels of Abeta total and Abeta 1-42 produced and secreted into the medium of human neuroblastoma SKNBE2 cells are quantified. The assay is based on the human neuroblastoma SKNBE2 expressing the wild type Amyloid Precursor Protein (hAPP695). The compounds are diluted and added to these cells, incubated for 18 hours and then measurements of Abeta 1-42 and Abeta total are taken. Abeta total and Abeta 1-42 are measured by sandwich αLisa. αLisa is a sandwich assay using biotinylated antibody AbN/25 attached to streptavidin coated beads and antibody Ab4G8 or cAb42/26 conjugated acceptor beads for the detection of Abeta total and Abeta 1-42 respectively. In the presence of Abeta total or Abeta 1-42, the beads come into close proximity. The excitation of the donor beads provokes the release of singlet oxygen molecules that trigger a cascade of energy transfer in the acceptor beads, resulting in light emission. Light emission is measured after 1 hour incubation (excitation at […] and emission at 615 nm).

[1] = molecular target: recombinant BACE1 protein (Homo sapiens, UniProt P56817); assay: Biochemical FRET based assay; settings: recombinant BACE1 1 μg/ml, 120 minutes at room temperature, pH 5.0; for IC50: read-out: Biochemical FRET based assay pIC50 (converted)
Text: Biochemical FRET Based Assay
This assay is a Fluorescence Resonance Energy Transfer Assay (FRET) based assay. The substrate for this assay is an APP derived 13 amino acids peptide that contains the ‘Swedish’ Lys-Met/Asn-Leu mutation of the amyloid precursor protein (APP) beta-secretase cleavage site. This substrate also contains two fluorophores: (7-methoxycoumarin-4-yl) acetic acid (Mca) is a fluorescent donor with excitation wavelength at 320 nm and emission at 405 nm and 2,4-Dinitrophenyl (Dnp) is a proprietary quencher acceptor. […] Upon cleavage by BACE1, the fluorophore Mca is separated from the quenching group Dnp, restoring the full fluorescence yield of the donor. The increase in fluorescence is linearly related to the rate of proteolysis.
Briefly in a 384-well format recombinant BACE1 protein in a final concentration of 1 μg/ml is incubated for 120 minutes at room temperature with […] substrate in incubation buffer (40 mM Citrate buffer pH 5.0, 0.04% PEG, 4% DMSO) in the absence or presence of compound. Next the amount of proteolysis is directly measured by fluorescence measurement at T=0 and T=120 (excitation at 320 nm and emission at 405 nm). Results are expressed in RFU (Relative Fluorescence Units), as difference between T120 and TO.

Abeta total = assay: Cellular αLisa assay in SKNBE2 cells, Abeta total; format: cell-based, human; settings: incubated for 18 hours; for IC50: Homo sapiens, SKNBE2, 18 h, read-out: Cellular αLisa assay in SKNBE2 cells Abetatotal pIC50 (converted)
Experimental: as §1, §2

Chain of recombinant BACE1 protein (P56817 46-501): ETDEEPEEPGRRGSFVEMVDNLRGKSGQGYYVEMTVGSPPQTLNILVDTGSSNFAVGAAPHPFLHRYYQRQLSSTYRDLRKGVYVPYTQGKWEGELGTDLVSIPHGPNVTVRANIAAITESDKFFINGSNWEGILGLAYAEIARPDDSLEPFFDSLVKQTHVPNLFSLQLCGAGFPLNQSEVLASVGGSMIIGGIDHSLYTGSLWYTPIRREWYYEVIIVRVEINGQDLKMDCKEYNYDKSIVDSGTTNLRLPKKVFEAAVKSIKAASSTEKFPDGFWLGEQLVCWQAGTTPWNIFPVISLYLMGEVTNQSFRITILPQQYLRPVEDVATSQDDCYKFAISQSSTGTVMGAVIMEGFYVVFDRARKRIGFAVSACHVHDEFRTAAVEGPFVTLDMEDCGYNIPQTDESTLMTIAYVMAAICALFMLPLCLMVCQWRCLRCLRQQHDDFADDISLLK

CC1(c2cccc(-c3cncnc3)c2)N=C(N)COC1(F)C(F)(F)F (single isomer, unassigned) [Compound 139]
Cellular αLisa assay in SKNBE2 cells Abeta 42 pIC50 (Abeta 1-42): <5
IC50 [1]: > 30.2 µM
Cellular αLisa assay in SKNBE2 cells Abetatotal pIC50 (Abeta total): <5

COc1cncc(-c2cccc(C3(C)N=C(N)COC3F)c2)c1 (single isomer, unassigned) [Compound 89]
Cellular αLisa assay in SKNBE2 cells Abeta 42 pIC50 (Abeta 1-42): 6.51
IC50 [1]: 5.5 µM
Cellular αLisa assay in SKNBE2 cells Abetatotal pIC50 (Abeta total): 6.67

CC1(c2cc(NC(=O)c3ccncn3)ccc2F)COCC(N)=N1 (stereo not drawn) [Compound 28]
Cellular αLisa assay in SKNBE2 cells Abeta 42 pIC50 (Abeta 1-42): 7.07
Biochemical FRET based assay pIC50 [1]: 6.18
Cellular αLisa assay in SKNBE2 cells Abetatotal pIC50 (Abeta total): 7.04

CC1(c2cc(-c3cncc(Cl)c3)c(F)cc2F)COCC(N)=N1 (stereo not drawn) [Compound 23]
Cellular αLisa assay in SKNBE2 cells Abeta 42 pIC50 (Abeta 1-42): 6.89
Biochemical FRET based assay pIC50 [1]: 5.86
Cellular αLisa assay in SKNBE2 cells Abetatotal pIC50 (Abeta total): 6.85

CCC1(c2cc(NC(=O)c3cnc(OC)cn3)ccc2F)N=C(N)COC1C(F)(F)F (stereo not drawn) [Compound 285]
IC50 (Abeta 1-42): 0.0148 µM
IC50 [1]: 0.1 µM
IC50 (Abeta total): 0.0158 µM

N#Cc1ccc(C(=O)Nc2cccc([C@@]3(C4CC4)N=C(N)CO[C@@H]3F)c2)nc1 [Compound 251]
IC50 (Abeta 1-42): 0.0417 µM
IC50 [1]: 0.049 µM
IC50 (Abeta total): 0.038 µM

CCC1(c2cc(NC(=O)c3cnc(OC)cn3)ccc2F)N=C(N)COC1F (stereo not drawn) [Compound 282]
Cellular αLisa assay in SKNBE2 cells Abeta 42 pIC50 (Abeta 1-42): 6.56
IC50 [1]: 0.891 µM
Cellular αLisa assay in SKNBE2 cells Abetatotal pIC50 (Abeta total): 6.65

NC1=N[C@@](c2cccc(NC(=O)c3ncc(Cl)cc3F)c2)(C2CC2)[C@@H](C(F)(F)F)OC1 [Compound 287]
IC50 (Abeta 1-42): 0.0324 µM
IC50 [1]: 0.138 µM
IC50 (Abeta total): 0.0275 µM

NC1=N[C@@](c2cccc(-c3cncnc3)c2)(C2CC2)[C@@H](C(F)(F)F)OC1 [Compound 286]
IC50 (Abeta 1-42): 0.158 µM
IC50 [1]: 0.851 µM
IC50 (Abeta total): 0.155 µM

N#Cc1ccc(C(=O)Nc2ccc(F)c([C@@]3(C4CC4)N=C(N)CO[C@@H]3F)c2)nc1 [Compound 214, (2R,3R)—N-[3-(5-amino-3-cyclopropyl-2-fluoro-3,6-dihydro-2H-1,4-oxazin-3-yl)-4-fluorophenyl]-5-cyanopyridine-2-carboxamide]
IC50 (Abeta 1-42): 0.794 µM
IC50 [1]: 0.11 µM
IC50 (Abeta total): 0.708 µM

C[C@]1(c2cccc(NC(=O)c3ccc(C#N)cn3)c2)N=C(N)CO[C@]1(F)C(F)(F)F [Compound 240]
IC50 (Abeta 1-42): 0.0105 µM
IC50 [1]: 0.0257 µM
IC50 (Abeta total): 0.0102 µM

Cc1ccc(C(=O)Nc2cccc(C3(C)N=C(N)COC3(F)C(F)(F)F)c2)nc1 (single isomer, unassigned) [Compound 194]
Cellular αLisa assay in SKNBE2 cells Abeta 42 pIC50 (Abeta 1-42): 6.08
IC50 [1]: 2 µM
Cellular αLisa assay in SKNBE2 cells Abetatotal pIC50 (Abeta total): 6.13

NC1=NC(c2cccc(NC(=O)c3ccc(Cl)cn3)c2)(C2CC2)COC1 (single isomer, unassigned) [Compound 196]
Cellular αLisa assay in SKNBE2 cells Abeta 42 pIC50 (Abeta 1-42): 6.92
IC50 [1]: > 30.2 µM
Cellular αLisa assay in SKNBE2 cells Abetatotal pIC50 (Abeta total): 6.95

C[C@H]1OC[C@@](C)(c2cccc(NC(=O)c3ccc(Cl)cn3)c2)N=C1N (racemic) [Compound 151, cis-rac-N-[3-(5-Amino-3,6-dimethyl-3,6-dihydro-2H-1,4-oxazin-3-yl)phenyl]-5-chloropyridine-2-carboxamide]
Cellular αLisa assay in SKNBE2 cells Abeta 42 pIC50 (Abeta 1-42): 7.8
Biochemical FRET based assay pIC50 [1]: 6.4
Cellular αLisa assay in SKNBE2 cells Abetatotal pIC50 (Abeta total): 7.83

COc1cncc(-c2cccc(C3(C)COC4(CC4)C(N)=N3)c2)c1 (racemic) [Compound 16, rac-6-[3-(5-methoxypyridin-3-yl)phenyl]-6-methyl-4-oxa-7-azaspiro[2.5]oct-7-en-8-amine]
IC50 (Abeta 1-42): 0.389 µM
IC50 [1]: 2.19 µM
IC50 (Abeta total): 0.355 µM

CC1(c2cc(-c3cncnc3)ccc2F)COCC(N)=N1 (single isomer, unassigned) [Compound 53]
Cellular αLisa assay in SKNBE2 cells Abeta 42 pIC50 (Abeta 1-42): 5.28
Biochemical FRET based assay pIC50 [1]: <4.52
Cellular αLisa assay in SKNBE2 cells Abetatotal pIC50 (Abeta total): <5

C[C@@]1(c2cc(NC(=O)c3ccc(Cl)cc3)ccc2F)COCC(N)=N1 [Compound 41]
Cellular αLisa assay in SKNBE2 cells Abeta 42 pIC50 (Abeta 1-42): 7.31
Biochemical FRET based assay pIC50 [1]: 6.33
Cellular αLisa assay in SKNBE2 cells Abetatotal pIC50 (Abeta total): 7.33

N#Cc1ccc(C(=O)Nc2cccc([C@@]3(C4CC4)N=C(N)CO[C@H]3C(F)(F)F)c2)nc1 [Compound 225, (2R,3R)—N-{3-[5-amino-3-cyclopropyl-2-(trifluoromethyl)-3,6-dihydro-2H-1,4-oxazin-3-yl]phenyl}-5-cyanopyridine-2-carboxamide]
IC50 (Abeta 1-42): 0.00631 µM
IC50 [1]: 0.0355 µM
IC50 (Abeta total): 0.00661 µM

Cc1cncc(-c2cccc(C3(C)COCC(N)=N3)c2)c1 (racemic) [Compound 11]
Cellular αLisa assay in SKNBE2 cells Abeta 42 pIC50 (Abeta 1-42): 6.2
Biochemical FRET based assay pIC50 [1]: 4.84
Cellular αLisa assay in SKNBE2 cells Abetatotal pIC50 (Abeta total): 6.33

NC1=N[C@@](c2cccc(-c3cncnc3)c2)(C2CC2)[C@H](C(F)(F)F)OC1 [Compound 269]
IC50 (Abeta 1-42): 0.0589 µM
IC50 [1]: 0.158 µM
IC50 (Abeta total): 0.0575 µM

CC1(c2cccc(-c3cncnc3)c2)N=C(N)COC1F (single isomer, unassigned) [Compound 97]
Cellular αLisa assay in SKNBE2 cells Abeta 42 pIC50 (Abeta 1-42): 6.86
IC50 [1]: 6.17 µM
Cellular αLisa assay in SKNBE2 cells Abetatotal pIC50 (Abeta total): 6.87

COc1cnc(C(=O)Nc2cccc(C3(C)COC(F)(C(F)(F)F)C(N)=N3)c2)cn1 (single isomer, unassigned) [Compound 158]
IC50 (Abeta 1-42): > 10 µM
IC50 [1]: > 30.2 µM
IC50 (Abeta total): > 10 µM

CC1(c2cc(-c3ccc(Cl)cc3)c(F)cc2F)COCC(N)=N1 (stereo not drawn) [Compound 34]
Cellular αLisa assay in SKNBE2 cells Abeta 42 pIC50 (Abeta 1-42): 5.54
Biochemical FRET based assay pIC50 [1]: 5.05
Cellular αLisa assay in SKNBE2 cells Abetatotal pIC50 (Abeta total): 5.58

CC1(c2cc(-c3cncc(C#N)c3)ccc2F)N=C(N)COC1C(F)(F)F (stereo not drawn) [Compound 239]
IC50 (Abeta 1-42): 0.224 µM
IC50 [1]: 1.05 µM
IC50 (Abeta total): 0.224 µM

N#Cc1cncc(-c2ccc(F)c([C@@]3(C4CC4)N=C(N)CO[C@H]3F)c2)c1 [Compound 223]
IC50 (Abeta 1-42): > 10 µM
IC50 [1]: 24.5 µM
IC50 (Abeta total): > 10 µM

NC1=N[C@@](c2cc(-c3cncc(Cl)c3)ccc2F)(C2CC2)[C@@H](F)OC1 [Compound 294]
IC50 (Abeta 1-42): 6.61 µM
IC50 [1]: 2.29 µM
IC50 (Abeta total): 4.9 µM

NC1=N[C@@](c2cccc(NC(=O)c3ncc(Cl)cc3F)c2)(C2CC2)[C@H](F)OC1 [Compound 249, (2S,3R)—N-[3-(5-amino-3-cyclopropyl-2-fluoro-3,6-dihydro-2H-1,4-oxazin-3-yl)phenyl]-5-chloro-3-fluoropyridine-2-carboxamide]
IC50 (Abeta 1-42): 0.0891 µM
IC50 [1]: 0.219 µM
IC50 (Abeta total): 0.0813 µM

CCC1(c2cc(NC(=O)c3cnc(OC)cn3)ccc2F)N=C(N)COC1(F)C(F)(F)F (stereo not drawn) [Compound 300]
Cellular αLisa assay in SKNBE2 cells Abeta 42 pIC50 (Abeta 1-42): 5.91
IC50 [1]: 1.55 µM
Cellular αLisa assay in SKNBE2 cells Abetatotal pIC50 (Abeta total): 5.93

CC1(c2cc(-c3cncnc3)c(F)cc2F)N=C(N)COC1F (single isomer, unassigned) [Compound 81]
IC50 (Abeta 1-42): 1.23 µM
IC50 [1]: 8.91 µM
IC50 (Abeta total): 1.2 µM

CC1(c2cccc(NC(=O)c3ccc(C#N)cn3)c2)COCC(N)=N1 (single isomer, unassigned) [Compound 49]
Cellular αLisa assay in SKNBE2 cells Abeta 42 pIC50 (Abeta 1-42): 5.68
Biochemical FRET based assay pIC50 [1]: 4.6
Cellular αLisa assay in SKNBE2 cells Abetatotal pIC50 (Abeta total): 5.66

C[C@]1(c2cc(NC(=O)c3ncc(Cl)cc3F)ccc2F)N=C(N)CO[C@H]1C(F)(F)F [Compound 260]
IC50 (Abeta 1-42): 0.00661 µM
IC50 [1]: 0.0479 µM
IC50 (Abeta total): 0.00646 µM

COc1cncc(-c2cccc(C3(C)N=C(N)COC3(F)C(F)(F)F)c2)c1 (single isomer, unassigned) [Compound 141]
Cellular αLisa assay in SKNBE2 cells Abeta 42 pIC50 (Abeta 1-42): <5
IC50 [1]: > 30.2 µM
Cellular αLisa assay in SKNBE2 cells Abetatotal pIC50 (Abeta total): <5

CC1(c2cccc(NC(=O)c3ccc(Cl)cn3)c2)N=C(N)COC1F (single isomer, unassigned) [Compound 122]
Cellular αLisa assay in SKNBE2 cells Abeta 42 pIC50 (Abeta 1-42): 5.19
Biochemical FRET based assay pIC50 [1]: <4.52
Cellular αLisa assay in SKNBE2 cells Abetatotal pIC50 (Abeta total): 5.04

N#Cc1ccc(C(=O)Nc2ccc(F)c(C3(C4CC4)N=C(N)COC3F)c2)nc1 (stereo not drawn) [Compound 215]
Cellular αLisa assay in SKNBE2 cells Abeta 42 pIC50 (Abeta 1-42): 6.51
Biochemical FRET based assay pIC50 [1]: 6.3
Cellular αLisa assay in SKNBE2 cells Abetatotal pIC50 (Abeta total): 6.52
